Test results as given in patent publication US12116356B2, “N-heterocyclic five-membered ring-containing capsid protein assembly inhibitor, pharmaceutical composition thereof, and use thereof” (CHIA TAI TIANQING PHARMACEUTICAL GROUP CO., LTD., priority 2018, dated 2024).

Assay: In vivo pharmacokinetic (PK) study in Beagle dog
Parameters: species or system Beagle dogs
Description: Beagle dogs, weighing 9 to 11 kg, were randomly divided into two groups of 3 dogs each, compound 12 was given by intragastric administration to each group at a dose of 5 mg/kg.
The test animals (Beagle dogs) were fasted for 12 hours before the administration, and fed 4 hours after the administration. They were free to access water before and after the experiment.
After the intragastric administration, about 0.5 mL of whole blood was collected from the veins of the left forelimb in an EDTA-K2 anticoagulated vacuum blood collection tube at 0 min, 15 min, 30 min, 1 h, 2 h, 4 h, 6 h, 8 h, 10 h, 24 h, 48 h, and 72 h. Within 30 minutes after collection, the plasma was separated by centrifugation at 4° C. and 4000 rpm for 10 minutes. Immediately after collecting all plasma, it was stored at −20° C. for testing.
50 μL of the plasma sample to be tested and standard curve sample were pipetted, and then thereto was added 500 μL of an acetonitrile solution containing an internal standard (diazepam 20 mg/mL). The resulting mixture was oscillated and mixed uniformly for 5 min, and then centrifugated at 12000 rpm for 10 min, 75 μL of the supernatant was pipetted, and 75 μL of ultrapure water was added for dilution and mixed evenly. 1 μL of the resulting solution was pipetted for LC/MS/MS determination.

[1] = plasma, Beagle dogs, PO 5 mg/kg

Cc1c(C(=O)Nc2ccc(F)c(C#N)c2)c(C)n(C)c1C(=O)C(=O)N[C@@H](C)C(F)(F)F [Example 12]
half-life (Beagle, in vivo, po, 5 mg/kg): 105 h | AUC(0-inf) [1]: 162 µg·h/mL | Cmax [1]: 1280 ng/mL | Tmax [1]: 1.67 h | AUC(0-t) (plasma, Beagle dogs, PO 5 mg/kg, read-out: AUC(0-72 h)): 61.9 µg·h/mL | MRT last (plasma, Beagle dogs, PO 5 mg/kg, read-out: MRT(0-t)): 32.9 h
